For assay [1], the system named is aminobenzylpenicillin-resistant strain of Klebsiella pneumoniae. The experiment in a line: Therapeutical treatment of mice infected with aminobenzylpenicillin-resistant Klebsiella pneumoniae (Example 12). Type of assay: in vivo, male ICR-JCL mice. The settings on record: only aminobenzylpenicillin 100 mg/kg oral, 7th day. On the procedure:
Similar experiments as in Example 9 were performed using the present substance obtained by the procedures described in Example 1.
An aminobenzylpenicillin-resistant strain of Klebsiella pneumoniae obtained by the procedures described in Example 1 was inoculated intraperitoneally into two groups (one group comprising 10 animals) of male ICR-JCL mice at a rate of 1×10^8 cells/mouse.
After 2 hours of the inoculation, 100 mg/kg of aminobenzyl penicillin was orally administered to each mouse of one group, and 1,000 mg/kg of the present substance simply admixtured with 100 mg/kg of aminobenzyl penicillin were orally administered to each mouse of another group. After keeping the mice under usual conditions, the rate of survival of each group was observed on 7th day with the results: […]

For a further assay, the system named is Proteus mirabilis. The experiment in a line: Minimum growth inhibiting concentration, agar plate method. Type of assay: cell-based. As to the method: (§1) The drug-resistant strains of bacterial species were obtained in the manner described below according to the concentration gradient plate culture (see "Chemotherapeutics and Resistant Bacteria", 1970, By Chikara Watanabe, Asakura Shoten).
(§2) The agar plates with drug concentration gradient ranging from 10 to 100 μg/ml were prepared, and each strain of the bacterial species to be tested was streaked or smeared. These plates were kept at 37° C. for several days and the colony formed in the high concentration area was isolated and again similarly inoculated to the plates. Such operation was repeated several times to obtain the bacterial strains resistant to the respective drugs.
(§3) The drug sensitivity of the drug-resistant strains and that of the original strains (sensitive strains) were compared by way of the minimum growth inhibiting concentration (hereinafter abbreviated as MIC) according to the Standard Method of the Japanese Chemotherapeutical Association (see "Chemotherapy" Vol. 22, No. 6, 1126 (1974), by MIC Determination Method Reform Committee). More specifically, double diluted systems of each drug were prepared and they were mixed with the heart-infusion agar medium (Nippon Eiyo Kagaku Co., Ltd.) to form the agar plates. Then a loopful of each strain, which had been cultured at 37° C. in Trypto-soy bouillon (Nippon Eiyo Kagaku Co., Ltd.) for 18 hr. was smeared on each the plate, and after culturing for 18 hr. at 37° C., the growth of the strain on each plate was examined.
The amount of the present substance added is more than 10 μg/ml, preferably more than 100 μg/ml. The pH of the medium was maintained at 7.2±0.1 so that MIC would not be affected by pH of the medium.
Specimens of the drug-resistant bacterial strain were obtained according to the aforementioned concentration-gradient plate culture by using Staphylococcus aureus, Streptococcus faecalis, Escherichia coli, Salmonella enteritidis, Klebsiella pneumoniae and Pseudomonas aeruginosa.

For assay [2], the system named is aminobenzylpenicillin-resistant strain of Enterobacter aerogenes. As to the kind of experiment: Therapeutical treatment of mice infected with aminobenzylpenicillin-resistant Enterobacter aerogenes (Example 13). Type of assay: in vivo, male ICR-JCL mice. Particulars: only aminobenzylpenicillin 100 mg/kg oral, 7th day. As to the method:
After keeping the mice for 6 days under usual conditions, their rate of survival was determined on 7th day.

Assay [3] relates to cephaloridine-resistant strain of Proteus mirabilis. As to the kind of experiment: Therapeutical treatment of mice infected with cephaloridine-resistant Proteus mirabilis (Example 11). Type of assay: in vivo, male ICR-JCL mice. Particulars: only cephaloridine 80 mg/kg i.p., 7th day. As to the method: (§4) Similar experiments of therapeutical treatment as in Example 9 was performed by using the present substance obtained by the procedures described in Example 1.
A cephaloridine-resistant strain of Proteus mirabilis obtained by the procedures described in Example 1 was inoculated into male ICR-JCL mice comprising 20 animals at a rate of 5×10^8 cells/animal. After 2 hours of the inoculation 80 mg/kg of cephalotidine was administered intraperitoneally into each of 10 mice (of 20 mice), and 50 mg/kg of the present substance and 80 mg/kg of cephaloridine were almost simultaneously administered to each of another 10 mice (of 20 mice) intraperitoneally.
After keeping the animals under usual conditions for 6 days, their rate of survival were observed on 7th day to find: […]

Another assay has as its system Escherichia coli. As to the kind of experiment: Minimum growth inhibiting concentration, agar plate method. Type of assay: cell-based. The settings on record: for Minimum growth inhibiting concentration: strain resistant to the respective drug. As to the method: as §1, §2, §3
MIC has apparently been reduced to half the level or less before addition of the present substance as will be seen in Table 3 of EXAMPLE 1. The amount of the present substance added is more than 10 μg/ml, preferably more than 100 μg/ml. The pH of the medium was maintained at 7.2±0.1 so that MIC would not be affected by pH of the medium.
Specimens of the drug-resistant bacterial strain were obtained according to the aforementioned concentration-gradient plate culture by using Staphylococcus aureus, Streptococcus faecalis, Escherichia coli, Salmonella enteritidis, Klebsiella pneumoniae and Pseudomonas aeruginosa. The MICs of the original bacterial strains and those of the bacterial strains which have developed resistance to the respective antibiotics are summarized in Table 2.

Another assay has as its system Shigella sonnei. The description is as above. The settings on record: for Minimum growth inhibiting concentration: strain resistant to the respective drug. Type of assay: cell-based.
Assay [4] relates to kanamycin-resistant strain of Shigella sonnei. As to the kind of experiment: Therapeutical treatment of mice infected with kanamycin-resistant Shigella sonnei (Example 10). Type of assay: in vivo, male ICR-JCL mice. The settings on record: only kanamycin 20 mg/kg i.p., 7th day. As to the method:
as §4
A kanamycin-resistant strain of Shigella sonnei obtained by the procedures described in Example 1 was intraperitoneally inoculated to the two groups (each group comprising 10 animals) of male ICR-JCL mice at a rate of 1×10^8 cells/mouse, and after 2 hours of the inoculation, 20 mg/kg of kanamycin was intraperitoneally administered to the mice of one group, and 100 mg/kg of the present substance and 20 mg/kg of kanamycin were almost simultaneously administered to the mice of another group. After keeping the mice under usual conditions for 6 days. Their rate of survival was observed on 7th day.

Another assay deals with Enterobacter aerogenes. The experiment in a line: Minimum growth inhibiting concentration, agar plate method. The settings on record: for Minimum growth inhibiting concentration: strain resistant to the respective drug. Type of assay: cell-based.
The mark [5] stands for this setting: strain resistant to the respective antibiotic (Table 2).
Where [6] appears, read: present substance not added (Table 3).
[7] abbreviates: present substance added at 1000 μg/ml.

As for `CC1(C)S[C@@H]2[C@H](NC(=O)[C@H](N)c3ccccc3)C(=O)N2[C@H]1C(=O)O` [AP, Aminobenzylpenicillin], the rate of survival is given as 40% in assay [1] and 70% in assay [2]. Besides, the entries for the “Minimum growth inhibiting concentration (MIC)” value in the assay with Proteus mirabilis (original strain) and in the assay on Proteus mirabilis (setting [5]) were 0.8 µg/mL and 25 µg/mL, respectively. Moreover, in the assay with Proteus mirabilis (strain resistant to the respective drug, present substance not added (Table 3)), the “Minimum growth inhibiting concentration” value was found to be 25 µg/mL.

The molecule `O=C(Cc1cccs1)N[C@@H]1C(=O)N2C(C(=O)[O-])=C(C[n+]3ccccc3)CS[C@H]12` [CE, Cephaloridine] yielded a rate of survival in assay [3] of 60%. For the same molecule, the “Minimum growth inhibiting concentration (MIC)” value is 3.1 µg/mL in the assay with Escherichia coli (original strain) and 25 µg/mL in the assay on Escherichia coli (setting [5]). The results for the “Minimum growth inhibiting concentration” value in the assay with Escherichia coli (present substance added at 10 μg/ml) and in the assay on Escherichia coli (setting [6]) were 12.5 µg/mL and 25 µg/mL, respectively.

Consider `NC[C@H]1O[C@H](O[C@H]2[C@H](O)[C@@H](O[C@H]3O[C@H](CO)[C@@H](O)[C@H](N)[C@H]3O)[C@H](N)C[C@@H]2N)[C@H](O)[C@@H](O)[C@@H]1O` [KM, Kanamycin], for which the “Minimum growth inhibiting concentration (MIC)” value was determined as 3.1 µg/mL in the assay on Shigella sonnei (original strain); 50 µg/mL in the assay on Shigella sonnei (setting [5]); 3.1 µg/mL with Enterobacter aerogenes (original strain); 100 µg/mL in the assay with Enterobacter aerogenes (setting [5]); 6.3 µg/mL with Escherichia coli (original strain); 200 µg/mL in the assay on Escherichia coli (setting [5]). In addition, the “Minimum growth inhibiting concentration” value with Shigella sonnei (setting [7]) turned out to be 12.5 µg/mL; in the assay with Shigella sonnei (setting [6]), 50 µg/mL; in the assay on Enterobacter aerogenes (setting [7]), 12.5 µg/mL; in the assay on Enterobacter aerogenes (setting [6]), 100 µg/mL; in the assay on Escherichia coli (setting [7]) it was 50 µg/mL; in the assay on Escherichia coli (setting [6]), 200 µg/mL. Besides, the rate of survival in assay [4] is 30%.

For the origin of these results see US4268505A, “Pharmaceutical composition comprising a nitrogen-containing polysaccharide and an antibiotic agent, and a method of treating an infectious disease therewith” (priority 1979, dated 1981).
